Measurements reported in publication PMC10388363, “Novel 1,4-Dihydropyridines as Specific Binders and Activators of SIRT3 Impair Cell Viability and Clonogenicity and Downregulate Hypoxia-Induced Targets in Cancer Cells” (Journal of Medicinal Chemistry, 2023).

Tests used:
human SIRT3 [1] = target: T1, human SIRT3 (Homo sapiens, UniProt Q9NTG7); design: method as in PMID 36228194; settings: 100 μM; cited from earlier work
T1 construct: pET151D/Topo (Sirt3-114-380 and Sirt5-34-302); His tag (N, cleaved yes); made in house; host or cells: Escherichia coli
T1 sequence (Q9NTG7 114-380): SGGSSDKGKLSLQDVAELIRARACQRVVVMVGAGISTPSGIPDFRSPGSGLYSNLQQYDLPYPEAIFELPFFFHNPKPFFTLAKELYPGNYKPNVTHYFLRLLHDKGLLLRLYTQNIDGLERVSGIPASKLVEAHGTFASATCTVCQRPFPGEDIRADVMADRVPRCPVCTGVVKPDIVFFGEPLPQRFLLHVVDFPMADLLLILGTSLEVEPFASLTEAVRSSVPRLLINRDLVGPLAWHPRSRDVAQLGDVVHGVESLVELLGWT

human SIRT1 = target: T2, human SIRT1 (Homo sapiens, UniProt Q96EB6); design: method as in PMID 36228194; settings: 100 μM; cited from earlier work
T2 construct: using constructs in pET15b (Sirt1); His tag (N, cleaved yes); made in house; host or cells: Escherichia coli
T2 sequence (Q96EB6 1-747): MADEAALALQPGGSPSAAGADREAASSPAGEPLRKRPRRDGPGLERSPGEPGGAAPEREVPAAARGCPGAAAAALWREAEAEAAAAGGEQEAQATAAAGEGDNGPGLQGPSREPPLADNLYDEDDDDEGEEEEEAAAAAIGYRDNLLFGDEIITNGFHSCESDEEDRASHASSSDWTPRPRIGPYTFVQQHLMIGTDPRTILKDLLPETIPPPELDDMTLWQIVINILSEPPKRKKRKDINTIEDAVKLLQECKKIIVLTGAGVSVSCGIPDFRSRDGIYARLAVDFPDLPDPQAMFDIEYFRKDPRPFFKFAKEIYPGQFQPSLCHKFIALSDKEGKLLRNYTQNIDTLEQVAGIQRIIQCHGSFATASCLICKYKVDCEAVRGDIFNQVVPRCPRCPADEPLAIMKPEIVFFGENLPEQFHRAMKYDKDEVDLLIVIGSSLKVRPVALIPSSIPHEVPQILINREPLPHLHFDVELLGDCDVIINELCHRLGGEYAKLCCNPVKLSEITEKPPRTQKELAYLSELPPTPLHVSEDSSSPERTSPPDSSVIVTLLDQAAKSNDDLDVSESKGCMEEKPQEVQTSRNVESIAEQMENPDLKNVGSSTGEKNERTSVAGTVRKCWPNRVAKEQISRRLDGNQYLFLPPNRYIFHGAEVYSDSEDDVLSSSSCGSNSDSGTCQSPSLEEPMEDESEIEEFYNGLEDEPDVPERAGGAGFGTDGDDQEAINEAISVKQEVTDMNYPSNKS

human SIRT3 [2] = target: T1, human SIRT3; test: Surface plasmon resonance binding assay, immobilized SIRT3; settings: SPR, Scatchard analysis, analytes 5-80 μM
Description: Next, surface plasmon resonance (SPR) experiments were conducted with selected SIRT3 activators 2e and 3a–d to ascertain their biophysical interaction with the human SIRT3 protein. Their parental compounds 2 and 3, together with honokiol, were used as positive controls. The experiments were carried out twice at different concentrations (5, 10, 20, 40, and 80 μM), by injecting the compounds at increasing doses (Figure 5). The resonance units (RU) increase with respect to baseline indicates the formation of the SIRT3/ligand complex, the plateau region represents the steady-state phase of the interaction (RUeq, RU at equilibrium) and the decrease in RU after 180 s represents dissociation of analytes from the immobilized SIRT3 protein after injection of the buffer.
SPR experiments were carried out using a SensiQ Pioneer system (SensiQ, Oklahoma City, OK, USA), essentially as in Genovese et al. 2020[84] and in Battista et al. 2021,[85] with some modifications, as follows.
The sensor chip (COOH5) was chemically activated by a 35 μL injection of a 1:1 mixture of […] (200 mM) and N-hydroxysuccinimide (50 mM) at a flow rate of 5 μL/min. Sirtuin3 (ligand) was immobilized on activated sensor chips via amine coupling. Immobilization was carried out in 20 mM sodium acetate at pH 4.0; unreacted groups were blocked by injecting 1 M ethanolamine hydrochloride (35 μL). Sirtuin3 immobilization level obtained was 1500–4000 RU.
The analytes, dissolved in 100% DMSO at 10 mM concentration, were diluted in buffer 20 mM Hepes, 150 mM NaCl, 0.005% surfactant P20 buffer (HBSP) to a concentration of 200 μM (2% final DMSO concentration), further diluted in HBSP + 2% DMSO (HBSP2%D) and injected on the sensor chip at a constant flow rate (nominal flow rate = 30 μL/min) at the following concentrations: 5, 10, 20, 40, and 80 μM.
The RU increase relative to baseline indicates complex formation (taking place at known analytes concentrations at each moment in the gradient); the plateau region represents the steady-state phase of the interaction (RUeq); and the decrease in RU after 180 s represents dissociation of analytes from the immobilized Sirtiun3 after injection of HBSP2%D. Regeneration procedures are based on two long (2000 and 500 s) injections of buffer, separated by a brief (5 s) injection of 10 mM NaOH.
Control experiments were performed in sensor chips treated as described above in the absence of an immobilized ligand. Kinetic evaluation of the sensorgrams was obtained using the SensiQ Qdat program and full fitting with 1, 2, and 3 sites; Scatchard analysis was used to determine apparent KD values.

## CCOC(=O)C1=CN(C(=O)c2ccccc2)C=C(C(=O)OCC)C1c1ccccc1 [Compound 2]
Human SIRT3 [1]
  SIRT3 activation: over 300%
Human SIRT1
  SIRT1 activation: below 200%
Human SIRT3 [2]
  Kd: 40 to 47 µM
